The target of experiment [1] is T1, DXP synthase (Escherichia coli, UniProt P77488).
T1 construct: made in house
T1 sequence (P77488 1-620): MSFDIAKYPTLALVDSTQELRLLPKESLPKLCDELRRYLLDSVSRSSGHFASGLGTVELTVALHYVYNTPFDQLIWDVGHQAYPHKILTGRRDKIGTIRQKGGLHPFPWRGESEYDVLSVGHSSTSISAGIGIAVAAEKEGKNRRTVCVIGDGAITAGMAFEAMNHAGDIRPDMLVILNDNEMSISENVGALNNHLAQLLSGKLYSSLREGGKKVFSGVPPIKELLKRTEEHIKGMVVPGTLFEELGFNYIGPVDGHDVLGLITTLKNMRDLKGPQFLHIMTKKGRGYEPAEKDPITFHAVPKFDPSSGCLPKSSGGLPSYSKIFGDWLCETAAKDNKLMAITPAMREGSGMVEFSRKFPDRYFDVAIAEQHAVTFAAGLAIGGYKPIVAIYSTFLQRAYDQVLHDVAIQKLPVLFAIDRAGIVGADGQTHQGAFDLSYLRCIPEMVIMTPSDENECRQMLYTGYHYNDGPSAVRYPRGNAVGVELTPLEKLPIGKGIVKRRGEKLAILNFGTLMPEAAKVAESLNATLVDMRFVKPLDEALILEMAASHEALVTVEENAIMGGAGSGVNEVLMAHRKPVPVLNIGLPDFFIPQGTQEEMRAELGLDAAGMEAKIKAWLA
As to the kind of experiment: Aromatic aldehydes as DXP synthase acceptor substrates. The class given is biochemical. From the text: Some ThDP-dependent enzymes are known to catalyze C—C bond formation using aromatic substrates with varying turnover efficiencies; ^[20] [21] […] As a starting point, we tested several aromatic aldehydes as acceptor substrates.

Experiment [2] has as its system wild-type K-12 E. coli (ATCC: MG1655). Kind of experiment: Antimicrobial activity against E. coli K-12 grown in CAMHB. The class given is cell-based. Here is the method:
FIG. 7A and FIG. 7B are charts showing representative growth curves are shown for BAP (FIG. 7A) and BnAP (FIG. 7B). Alkylacetylphosphonates exert dose-dependent delay in E. coli K-12 (MG 1655) growth in CAMHB. Fractional growth (measured at 16 h, blue arrow) was determined relative to the no drug control. Standardized cell cultures were exposed to increasing concentrations of acetylphosphonate, and growth was determined by measuring the OD600 for a period of 16 hours. Acetylphosphonate concentration was varied from 0-5 mM: No drug (light blue), 0.08 mM (orange), 0.16 mM (gray), 0.31 mM (yellow), 0.63 mM (blue), 1.25 mM (green), 2.5 mM (dark blue) and 5.0 mM (brown).
Thus, BnAP, PentAP, HexAP and OctAP, also shown to inhibit DXP synthase, were evaluated for antimicrobial activity against wild-type K-12 E. coli (ATCC: MG1655) grown in rich medium (CAMHB).

For experiment [3], the system named is E. coli K-12 (BW25113). Kind of experiment: Antimicrobial activity against E. coli K-12 grown in M9 minimal medium. The class given is cell-based. The conditions noted are these: Escherichia coli, BW25113. From the text: The product of DXP synthase, DXP, lies at a metabolic branchpoint. DXP serves as precursor not only for essential isoprenoids, but also is essential to central metabolism as a precursor to both thiamin diphosphate and pyridoxal phosphate. Thus, evaluation of antimicrobial activity of DXP synthase inhibitors in the standard, rich growth medium (CAMHB) which contains rescuing metabolites, likely underestimates the antimicrobial activities of these agents. Standard in vitro culture conditions may have poor predictive value for these agents in vivo; access to most nutrients is thought to be more difficult from the host than in nutrient rich media.

The target in experiment [4] is T2, Porcine pyruvate dehydrogenase (PDH E1 subunit) (Sus scrofa, UniProt P29804).
T2 construct: Ki^PDH; μM); Ki^PDH
T2 sequence (P29804 1-390): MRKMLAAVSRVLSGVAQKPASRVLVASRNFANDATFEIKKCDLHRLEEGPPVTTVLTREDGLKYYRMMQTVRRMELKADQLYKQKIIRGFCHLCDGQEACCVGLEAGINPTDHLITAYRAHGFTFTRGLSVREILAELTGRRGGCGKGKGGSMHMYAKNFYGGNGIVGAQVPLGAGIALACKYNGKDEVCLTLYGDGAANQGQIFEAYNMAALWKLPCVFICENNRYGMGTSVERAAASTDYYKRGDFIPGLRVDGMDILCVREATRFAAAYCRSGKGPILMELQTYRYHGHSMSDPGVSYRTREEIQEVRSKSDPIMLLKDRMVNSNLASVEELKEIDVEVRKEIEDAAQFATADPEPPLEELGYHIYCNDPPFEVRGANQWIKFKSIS
Kind of experiment: Inhibition of PDH by acetylphosphonates. The conditions noted are these: Table 5 (no unit in table; μM). The class given is biochemical. On the procedure: FIG. 6A, FIG. 6B, and FIG. 6C are charts showing Competitive inhibition of procine PDH E1 subunit by PentAP (FIG. 6A), HexAP (FIG. 6B) and OctAP (FIG. 6C). Inhibition assays were performed as previously described^[18]. Pyruvate concentration was varied from 12.5-250 μM and acetylphosphonate concentration was varied: 0 μM (∘), 250 μM (PentAP) or 200 μM (HexAP and OctAP) (●), 500 μM (□) and 1000 μM (▪). Experiments were performed in triplicate, and data were subjected to non-linear regression analysis for Ki determinations (GraphPad Prism). Representative Lineweaver-Burk plots (GraFit from Erithacus Software) are shown for PentAP (FIG. 6A), HexAP (FIG. 6B) and OctAP (FIG. […]) to illustrate the competitive inhibition mode with respect to pyruvate.
Pyruvate dehydrogenase activity was measured spectrophotometrically as previously reported ^[38] by monitoring absorbance changes at 340 nm due to reduction of NAD^+ by PDH. Reaction mixtures contained 100 mM HEPES (pH 8.0), 1 mg/mL BSA, 0.2 mM ThDP, 0.1 mM coenzyme A, 1 mM MgCl2, 2 mM cysteine, 0.3 mM tris(2-carboxyethyl)phosphine (TCEP). The reaction was initiated with enzyme (0.01 units/ml) and activity was monitored at 30° C. For inhibition studies, reaction mixtures (described above) including BnAP (0.5, 1, 2.25 mM) were pre-incubated at 30° C. for 5 minutes. Initial rates were measured immediately after reactions were initiated by addition of PDH (0.01 units/ml). Double reciprocal analysis of data was carried out using GraFit version 7 from Erithacus Software.

Experiment [5] addresses T3, E. coli DXP synthase (Escherichia coli, UniProt P77488).
T3 construct: made in house
As to the kind of experiment: biochemical. The conditions noted are these: competitive with respect to pyruvate. Here is the method: FIG. 4A, FIG. 4B, and FIG. 4C are charts showing competitive inhibition of DXP synthase by pentylacetylphosphonate (PentAP; FIG. 4A), hexylacetylphosphonate (HexAP; FIG. 4B), and octylacetyl phosphonate (OctAP; FIG. 4C). Inhibition assays were performed as previously described^[18], [40]). […] Pyruvate concentration was varied from 12-240 μM and acetylphosphonate concentration was varied: 0 μM (∘), 10 μM (●), 25 μM (□) and 50 μM (▪). Experiments were performed in triplicate, and data were subjected to non-linear regression analysis for Ki determinations (GraphPad Prism). Representative Lineweaver-Burk plots (GraFit from Erithacus Software) are shown for PentAP (FIG. 4A), HexAP (FIG. 4B) and OctAP (FIG. 4C) to illustrate the competitive inhibition mode with respect to pyruvate.
Inhibition of DXP synthase was measured as previously described^[13], [18]. […] Acetylphosphonate concentration was varied from 0 to 250 μM. […] Experiments were performed in triplicate for BAP and in duplicate for iPrAP
In order to evaluate the inhibitory activity of BnAP against DXP synthase, a continuous spectrophotometric coupled assay was used to measure formation of DXP by monitoring IspC consumption of NADPH (340 nm). ^[2] DXP synthase reaction mixtures (previously described) including BnAP (15, 30, and 60 μM), IspC (1 μM) and NADPH (100 μM) were pre-incubated at 37° C. for 5 minutes. Initial rates were measured after the reaction was initiated by the addition of DXP synthase. Inhibition of the coupling enzyme (IspC) by BnAP was not observed up to 1.5 mM. Experiments were performed in triplicate. Double reciprocal analysis of data was carried out using GraFit version 7 from Erithacus Software.

Experiment [6] deals with porcine PDH E1 subunit. The class given is biochemical. On the procedure: Reaction mixtures containing 100 mM HEPES, pH 8.0, 2 mM MgCl2, 5 mM NaCl, 1 mM ThDP, 1 mg/mL BSA, 10-20 mM pyruvate, 10% DMSO v/v, and 10-300 μM nitroso substrate were pre-incubated at 37° C. for 5 min. Enzymatic reactions were initiated by addition of 0.5-2 μM DXP synthase (or 0.1 units/ml PDH) and monitored spectrophotometrically by measuring the rate of disappearance of the nitroso substrate at its corresponding λmax. Substrate concentration as a function of time was determined from absorbance values using Beer's Law. Initial reaction rates were determined from the linear range of the reaction progress curve, usually within 1-3 min. Data analysis to determine kcat and Km for each alternative substrate was carried out using GraFit version 7 from Erithacus Software.

The target in experiment [7] is T4, E. coli DXP synthase (DXPS) (Escherichia coli, UniProt P77488).
T4 construct: made in house
T4 sequence (P77488 1-620): T1 sequence (P77488 1-620)
The class given is biochemical. The conditions noted are these: 10-20 mM pyruvate, pH 8.0, 10% DMSO, 37° C., average ± SEM. On the procedure: Reaction mixtures containing 100 mM HEPES, pH 8.0, 2 mM MgCl2, 5 mM NaCl, 1 mM ThDP, 1 mg/mL BSA, 10-20 mM pyruvate, 10% DMSO, 0.5 mM 5 mM nitroso substrate were pre-incubated at 37° C. for 5 min. […] Aliquots of enzymatic mixture were removed at various time intervals and quenched into an equal volume of cold methanol. Quenched mixtures were incubated on ice for 20 minutes. Precipitated proteins were removed by centrifugation, and the supernatant was analyzed by HPLC with UV detection using the following conditions: Flow rate=3 mL/min; Solvent A: 100 mM NH4OAc, pH 4.6; Solvent B: acetonitrile; Method: 0-100% B over 10 min. New products formed were extracted from the supernatant using ethyl acetate (3×). […] Products were subsequently characterized by mass spectrometry.
Reaction mixtures containing 100 mM HEPES, pH 8.0, 2 mM MgCl2, 5 mM NaCl, 1 mM ThDP, 1 mg/mL BSA, 10-20 mM pyruvate, 10% DMSO v/v, and 10-300 μM nitroso substrate were pre-incubated at 37° C. for 5 min. […] Substrate concentration as a function of time was determined from absorbance values using Beer's Law. Initial reaction rates were determined from the linear range of the reaction progress curve, usually within 1-3 min. Data analysis to determine kcat and Km for each alternative substrate was carried out using GraFit version 7 from Erithacus Software.

For experiment [8], the target named is T1, DXP synthase. Kind of experiment: Inhibition of DXP formation by nitroso substrates (HPLC-based assay). The conditions noted are these: 30 μM D-GAP, 80 μM pyruvate, 37° C.; average ± SEM. The class given is biochemical, E. coli. Here is the method:
Enzyme reactions were initiated by addition of 0.1 μM DXP synthase. Aliquots (150 μL) of the enzymatic mixture were removed between 0.5 and 3 minutes and quenched into ice-cold methanol (150 μL). Precipitated protein was removed by centrifugation, and the supernatant was diluted in an equal volume of water. The nitroso substrate was removed by extraction into acetonitrile (3×), using a previously described freeze-extraction technique. ^[32] […] The derivatization mixtures were analyzed by HPLC as previously described. ^[19] To determine initial reaction rates in the presence of varying inhibitor concentration, the D,L-GAP and DXP hydrazone HPLC peak areas were measured, and the product concentration was determined as a percent of total peak area and plotted against reaction time. Initial rates GraFit version 7 from Erithacus Software was utilized to generate IC50 curves.

Setting [9] is: aromatic aldehyde acceptor substrate.

Converted amounts (≈) assume the structure as drawn. “And” between values parts separate entries of the source, which are not always exact repeats. Identical values can stand only once. Like-named read-outs stand apart in the source and are kept apart here.

As usually defined, the Km is the concentration of substrate that gives half-maximal velocity. The kcat is the maximal rate divided by the concentration of active sites. In the case of `O=Cc1c(O)cc([N+](=O)[O-])cc1[N+](=O)[O-]` [2-Hydroxy-4,6-dinitrobenzaldehyde], in experiment [1], the “Km higher than the natural substrate, D-GAP” value was roughly 18 fold. In addition, in experiment [1] (setting [9]), the Km amounted to 512 µM and the kcat turned out to be 0.00583 ± 0.00083 s⁻¹.
As usually defined, the MIC is the smallest concentration in the dilution series that meets the test's criterion for growth inhibition. The term Ki denotes the dissociation constant of the complex between target and ligand, obtained from inhibition or displacement. For `CCCCCCCCOP(=O)(O)C(C)=O` [OctAP, Octylacetylphosphonate], the “antimicrobial effects against E. coli (MG1655)” value in experiment [2] (FIG. 10, in words) is “inactive”. In addition, in experiment [2] (rich medium (CAMHB)), the “inactive up to” value was > 5 mM and > 1210 ug/mL. Also, in experiment [3] (M9 minimal medium, preliminary, read-out: MIC), the MIC came to 1250 µM (≈ 295 µg/mL). Also, the Ki in experiment [4] (read-out: Ki^PDH) was 154 ± 14 µM; in experiment [5] (read-out: Ki (DXP synthase)) it was 6 ± 0.2 µM.
Regarding `CCCCCOP(=O)(O)C(C)=O` [PentAP, Pentylacetylphosphonate], in experiment [2] (Escherichia coli, MG1655, 16 h, read-out: minimum inhibitory concentration (MIC90)), the MIC90 was found to be 1250 µM (≈ 243 µg/mL). Inhibition of growth in experiment [3] (MIC) required 12500 µM (≈ 2430 µg/mL). For the same molecule, the Ki turned out to be 250 ± 31 µM in experiment [4] (Ki^PDH) and 9.9 ± 0.4 µM in experiment [5] (Ki (DXP synthase)).
What is called IC50 is the midpoint of a concentration-inhibition curve. For the molecule benzyl acetylphosphonate [Compound 1], the Km in experiment [6] (10-20 mM pyruvate, pH 8.0, 37° C., average ± SEM) was 350 ± 30 µM; in experiment [7] (acceptor substrate), 133 ± 18 µM. Moreover, the “Km^PDH/Km^DXPS” value in experiment [6] (ratio porcine PDH E1 vs E. coli DXPS) was found to be 2.7. Moreover, the kcat in experiment [7] (acceptor substrate turnover) is 2.92 ± 0.317 s⁻¹. In addition, the IC50 in experiment [8] was found to be 208 ± 20 µM.

Source of the values: patent publication US9930893B2, “Inhibitors of DXP synthase and methods of use thereof” (The Johns Hopkins University, priority 2014, dated 2018).
